Reference: US5760041A, “4-aminoquinazoline EGFR Inhibitors” (American Cyanamid Company, priority 1997, dated 1998)
Read-outs that look alike come from different tables or passages of the source. Values belong to the compound of their own block, whether it stands above or below them.

Key:
[1] = system: human epidermoid tumors (A431); assay: In vivo inhibition of the growth of human epidermoid tumors (A431) in mice; details: for inhibition of tumor growth in vivo (in words): summary of Tables 4-7
Description: BALB/c nu/nu female mice (Charles River, Wilmington, Mass.) were used in the in vivo standard pharmacological test procedures. […] When tumors attained a mass of between 100 and 150 mg, the mice were randomized into treatment groups (day zero). Mice were treated IP once a day either on days 1, 5, and 9 or on days 1 through 10 post staging with doses of either 80, 40 or 20 mg/kg/dose of the compound to be evaluated in 0.2% Klucel. Control animals received no drug. Tumor mass was determined every 7 days [(length×width^2)/2] for 28 days post staging. Relative tumor growth (Mean tumor mass on day 7, 14, 21, and 28 divided by the mean tumor mass on day zero) is determined for each treatment group. The % T/C (Tumor/Control) is determined by dividing the relative tumor growth of the treated group by the relative tumor growth of the placebo group and multiplying by 100.

NHEK cells = assay: Inhibition of cell growth, [3H]-thymidine incorporation, NHEK; type: cell-based; details: Homo sapiens, read-out: IC50, NHEK
Description: (§1) Representative compounds of this invention were evaluated for their ability to inhibit the growth of the cell lines described below in vitro. The inhibition is quantitated by measuring the decrease in the incorporation of radio-labeled thymidine when the cells are grown in the presence of the inhibitor. A431 and SKBR3 cell lines are obtained from American Type Culture Collection, Rockville, Md. […] NHEK cells are obtained from Clonetics (San Diego, Calif.). Cells were routinely grown in a humidified incubator in 5% CO2 in air.
(§2) Cells were seeded at 10,000 cells/well in 96 well plates in complete media and allowed to grow to log phase. […] After overnight incubation in low serum (or EGF lacking) media, the compounds to be evaluated were added and cells remained in the presence of compounds for 48 to 72 hours. Media with test compound was then removed and complete media was added back. The cells were allowed to grow for 18 hours. This is followed by incubation in [^3 H]thymidine (1mCi/ml in serum/EGF media) for 4 hours. Cells were lysed in 0.5M NaOH for at least 30 min at 37° C. and radioactivity analyzed.
(§3) The cell growth inhibition data is provided below in TABLE 3. […] The % inhibition of the compound evaluated was determined for at least three different concentrations and the IC50 value evaluated from the dose response curve.
(§4) CPM(control) is in units of counts per minute and is a number expressing the amount of [^3 H]thymidine incorporated onto the DNA when cells are grown in the absence of test compound as measured by liquid scintillation counting.

SKBR3 cells = assay: Inhibition of cell growth, [3H]-thymidine incorporation, SKBR3; type: cell-based; details: Homo sapiens
Description: Representative compounds of this invention were evaluated for their ability to inhibit the growth of the cell lines described below in vitro. The inhibition is quantitated by measuring the decrease in the incorporation of radio-labeled thymidine when the cells are grown in the presence of the inhibitor. A431 and SKBR3 cell lines are obtained from American Type Culture Collection, Rockville, Md. […] NHEK cells are obtained from Clonetics (San Diego, Calif.). Cells were routinely grown in a humidified incubator in 5% CO2 in air. […] Cells were seeded at 10,000 cells/well in 96 well plates in complete media and allowed to grow to log phase. […] After overnight incubation in low serum (or EGF lacking) media, the compounds to be evaluated were added and cells remained in the presence of compounds for 48 to 72 hours. Media with test compound was then removed and complete media was added back. The cells were allowed to grow for 18 hours. This is followed by incubation in [^3 H]thymidine (1mCi/ml in serum/EGF media) for 4 hours. Cells were lysed in 0.5M NaOH for at least 30 min at 37° C. and radioactivity analyzed. The cell growth inhibition data is provided below in TABLE 3. […] The % inhibition of the compound evaluated was determined for at least three different concentrations and the IC50 value evaluated from the dose response curve. […] CPM(control) is in units of counts per minute and is a number expressing the amount of [^3 H]thymidine incorporated onto the DNA when cells are grown in the absence of test compound as measured by liquid scintillation counting.

Neu-3T3 cells = assay: Inhibition of cell growth, [3H]-thymidine incorporation, Neu-3T3; type: cell-based; details: Mus musculus, read-out: IC50, NEU-3T3
Description: as §1, §2, §3, §4

[2] = biological target: T1, Epidermal Growth Factor Receptor Kinase (EGF-R) (Homo sapiens, UniProt P00533); assay: Inhibition of Epidermal Growth Factor Receptor Kinase (EGF-R), phosphorylation of peptide substrate RR-SRC; type: biochemical; details: A431 membrane extract; average of number of tests
T1 construct: The enzyme was obtained as a membrane extract of A431 cells; (cells); host or cells: A431 cells (membrane extract)
Description: The % inhibition of the test compound was determined for at least three different concentrations and the IC50 value was evaluated from the dose response curve.
The CPM values were corrected for the background counts produced by ATP in the absence of the enzymatic reaction.

A431 cells = assay: Inhibition of cell growth, [3H]-thymidine incorporation, A431; type: cell-based; details: Homo sapiens, A-431, read-out: IC50, A431
Description: as §1
Cells were seeded at 10,000 cells/well in 96 well plates in complete media and allowed to grow to log phase. […] After overnight incubation in low serum (or EGF lacking) media, the compounds to be evaluated were added and cells remained in the presence of compounds for 48 to 72 hours. […] Cells were lysed in 0.5M NaOH for at least 30 min at 37° C. and radioactivity analyzed.
as §3, §4

[3] = Table 6, 20 mg/kg IP, day 1 through 10
[4] = Table 6, 20 mg/kg IP, day 1 through 10, * p < 0.01
[5] = Table 6, 80 mg/kg IP, days 1, 5, and 9
[6] = Table 6, 80 mg/kg IP, days 1, 5, and 9, * p < 0.01
[7] = Table 7, 20 mg/kg IP, days through 10
[8] = Table 7, 80 mg/kg IP, days 1, 5, and 9
[9] = SK-BR-3, 48 to 72 hours with compound, read-out: IC50, SKBR3
[10] = Table 4, 20 mg/kg/dose IP, days 1, 5, 9
[11] = Table 4, 20 mg/kg/dose IP, days 1 through 10
[12] = Table 4, 40 mg/kg/dose IP, days 1, 5, 9
[13] = Table 4, 80 mg/kg/dose IP, days 1, 5, 9
[14] = Table 5, 20 mg/kg/dose IP, days 1 through 15
[15] = Table 7, 80 mg/kg IP, days 1, 5, and 9, * p < 0.01

T1 sequence (P00533 25-1210): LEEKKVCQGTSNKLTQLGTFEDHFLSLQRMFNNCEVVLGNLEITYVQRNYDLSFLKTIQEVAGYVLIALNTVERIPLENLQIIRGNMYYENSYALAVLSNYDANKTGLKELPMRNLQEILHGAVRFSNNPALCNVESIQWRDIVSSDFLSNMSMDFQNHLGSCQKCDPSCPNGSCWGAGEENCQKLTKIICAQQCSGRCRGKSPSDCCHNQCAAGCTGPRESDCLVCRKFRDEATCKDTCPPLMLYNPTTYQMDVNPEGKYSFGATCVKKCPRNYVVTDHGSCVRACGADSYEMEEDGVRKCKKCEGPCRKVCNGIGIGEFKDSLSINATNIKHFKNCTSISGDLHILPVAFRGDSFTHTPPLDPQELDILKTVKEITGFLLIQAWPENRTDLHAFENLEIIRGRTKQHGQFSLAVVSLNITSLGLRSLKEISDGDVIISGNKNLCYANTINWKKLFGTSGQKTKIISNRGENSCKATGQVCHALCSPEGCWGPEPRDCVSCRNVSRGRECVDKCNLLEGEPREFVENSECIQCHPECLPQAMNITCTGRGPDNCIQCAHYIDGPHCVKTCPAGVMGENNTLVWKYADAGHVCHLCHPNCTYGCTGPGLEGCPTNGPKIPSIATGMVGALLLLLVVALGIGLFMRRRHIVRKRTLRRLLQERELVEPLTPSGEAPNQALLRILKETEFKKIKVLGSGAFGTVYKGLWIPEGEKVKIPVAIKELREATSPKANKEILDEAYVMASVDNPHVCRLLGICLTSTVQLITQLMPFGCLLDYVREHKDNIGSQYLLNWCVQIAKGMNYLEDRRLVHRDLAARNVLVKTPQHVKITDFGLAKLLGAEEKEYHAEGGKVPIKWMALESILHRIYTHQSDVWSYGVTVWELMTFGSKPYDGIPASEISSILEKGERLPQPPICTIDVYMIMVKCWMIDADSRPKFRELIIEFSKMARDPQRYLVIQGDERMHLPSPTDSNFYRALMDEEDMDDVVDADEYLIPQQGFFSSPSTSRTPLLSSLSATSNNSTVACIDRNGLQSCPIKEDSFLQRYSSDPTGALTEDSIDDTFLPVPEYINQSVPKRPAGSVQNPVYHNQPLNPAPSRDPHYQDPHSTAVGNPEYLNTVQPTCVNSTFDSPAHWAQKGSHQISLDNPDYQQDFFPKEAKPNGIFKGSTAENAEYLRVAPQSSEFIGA
T1 sequence (P01133 971-1023 partner limits assumed): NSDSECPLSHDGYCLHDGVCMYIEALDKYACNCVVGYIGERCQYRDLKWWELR

Compound: C=CC(=O)Nc1cc2c(Nc3cccc(C)c3)ncnc2cc1F [Comparator A, N-[4-[(3-methylphenyl)amino]-6-quinazolinyl]-7-fluoro-2-propenamide, reference compound]
activity relative to the compound of Example 9 (in words) ([1]; A431 tumors in mice, Tables 6 and 7): substantially less active than the compound of Example 9
inhibition of tumor growth in vivo (in words) ([1]; A431 tumors in mice): failed to significantly reduce tumor growth at both doses tested
RTG Day 7 [1, 3]: 4.82
RTG Day 14 [1, 3]: 7.36
RTG Day 21 [1, 3]: 8.75
S/T (No. Survivors/No. Treated on Day +21) [1, 3]: 9/10
% T/C Day 7 [1, 4]: 87%
% T/C Day 14 [1, 4]: 63%
% T/C Day 21 [1, 4]: 56%
RTG Day 7 [1, 5]: 3.39
RTG Day 14 [1, 5]: 5.60
RTG Day 21 [1, 5]: 7.68
S/T (No. Survivors/No. Treated on Day +21) [1, 5]: 10/10
% T/C Day 7 [1, 6]: 61%
% T/C Day 14 [1, 6]: 48%
% T/C Day 21 [1, 6]: 48%

Compound: CCCC(=O)Nc1ccc2ncnc(Nc3cccc(Br)c3)c2c1 [Comparator B, N-[4-[(3-bromophenyl)amino]-6-quinazolinyl]-butanamide, reference compound]
inhibition of tumor growth in vivo (in words) ([1]; A431 tumors in mice): failed to significantly reduce tumor growth at both doses tested
RTG Day 7 [1, 7]: 2.90
RTG Day 14 [1, 7]: 4.19
RTG Day 21 [1, 7]: 5.62
RTG Day 28 [1, 7]: 8.04
S/T (No. Survivors/No. Treated on Day +28) [1, 7]: 5/5
RTG Day 7 [1, 8]: 3.37
RTG Day 14 [1, 8]: 5.43
RTG Day 21 [1, 8]: 6.21
RTG Day 28 [1, 8]: 10.26
S/T (No. Survivors/No. Treated on Day +28) [1, 8]: 5/5

Compound: O=C(O)/C=C\C(=O)Nc1ccc2ncnc(Nc3cccc(Br)c3)c2c1 [Example 4, 4-[[4-[(3-Bromophenyl)amino]-6-quinazolinyl]amino]-4-oxo-(Z)-2-butenoic acid]
IC50 (NHEK cells): 170 nM

IC50 (SKBR3 cells; [9]): > 50000 nM
Compound: CC(C)=CC(=O)Nc1ccc2ncnc(Nc3cccc(Br)c3)c2c1 [Example 6, N-[4-[(3-Bromophenyl)amino]-6-quinazolinyl]-3-methyl-2-butenamide]
IC50 (Neu-3T3 cells; 48 to 72 hours with compound): > 50000 nM

Compound: CC#CC(=O)Nc1ccc2ncnc(Nc3cccc(Br)c3)c2c1 [Example 9, N-[4-[(3-Bromophenyl)amino]-6-quinazolinyl]-2-butynamide]
inhibition of tumor growth in vivo (in words) ([1]; A431 tumors in mice): significantly (p<0.01) inhibited human epidermoid tumor growth in vivo
% T/C Day 7 [1, 10]: 47%
% T/C Day 16 [1, 10]: 34%
% T/C Day 21 [1, 10]: 38%
% T/C Day 28 [1, 10]: 41%
RTG Day 7 [1, 10]: 1.72
RTG Day 16 [1, 10]: 2.69
RTG Day 21 [1, 10]: 4.33
RTG Day 28 [1, 10]: 6.18
S/T (No. Survivors/No. Treated on Day +28) [1, 10]: 5/5
% T/C Day 7 [1, 11]: 20%
% T/C Day 16 [1, 11]: 13%
% T/C Day 21 [1, 11]: 11%
% T/C Day 28 [1, 11]: 17%
RTG Day 7 [1, 11]: 0.75
RTG Day 16 [1, 11]: 1.01
RTG Day 21 [1, 11]: 1.25
RTG Day 28 [1, 11]: 2.53
S/T (No. Survivors/No. Treated on Day +28) [1, 11]: 5/5
% T/C Day 7 [1, 12]: 40%
% T/C Day 16 [1, 12]: 28%
% T/C Day 21 [1, 12]: 27%
% T/C Day 28 [1, 12]: 27%
RTG Day 7 [1, 12]: 1.48
RTG Day 16 [1, 12]: 2.23
RTG Day 21 [1, 12]: 3.05
RTG Day 28 [1, 12]: 4.04
S/T (No. Survivors/No. Treated on Day +28) [1, 12]: 5/5
% T/C Day 7 [1, 13]: 18%
% T/C Day 16 [1, 13]: 11%
% T/C Day 21 [1, 13]: 9%
% T/C Day 28 [1, 13]: 9%
RTG Day 7 [1, 13]: 0.71
RTG Day 16 [1, 13]: 0.91
RTG Day 21 [1, 13]: 1.07
RTG Day 28 [1, 13]: 1.36
S/T (No. Survivors/No. Treated on Day +28) [1, 13]: 5/5
% T/C Day 7 [1, 14]: 35%
% T/C Day 14 [1, 14]: 22%
% T/C Day 21 [1, 14]: 19%
% T/C Day 28 [1, 14]: 22%
RTG Day 7 [1, 14]: 1.11
RTG Day 14 [1, 14]: 1.26
RTG Day 21 [1, 14]: 1.51
RTG Day 28 [1, 14]: 2.55
S/T (No. Survivors/No. Treated on Day +28) [1, 14]: 14/15
RTG Day 7 [1, 3]: 0.79
RTG Day 14 [1, 3]: 1.39
RTG Day 21 [1, 3]: 2.55
S/T (No. Survivors/No. Treated on Day +21) [1, 3]: 10/10
% T/C Day 7 [1, 4]: 14%
% T/C Day 14 [1, 4]: 12%
% T/C Day 21 [1, 4]: 16%
RTG Day 7 [1, 5]: 1.25
RTG Day 14 [1, 5]: 2.50
RTG Day 21 [1, 5]: 3.77
S/T (No. Survivors/No. Treated on Day +21) [1, 5]: 10/10
% T/C Day 7 [1, 6]: 18%
% T/C Day 14 [1, 6]: 21%
% T/C Day 21 [1, 6]: 24%
RTG Day 7 [1, 8]: 0.89
RTG Day 14 [1, 8]: 1.50
RTG Day 21 [1, 8]: 2.44
RTG Day 28 [1, 8]: 3.45
S/T (No. Survivors/No. Treated on Day +28) [1, 8]: 5/5
% T/C Day 7 [1, 15]: 25%
% T/C Day 14 [1, 15]: 27%
% T/C Day 21 [1, 15]: 42%
% T/C Day 28 [1, 15]: 45%
IC50 (SKBR3 cells; SK-BR-3, read-out: IC50, SKBR3): 1060 nM
IC50 (NHEK cells): 2 nM

Compound: O=C(O)/C=C/C(=O)Nc1ccc2ncnc(Nc3cccc(Br)c3)c2c1 [Example 10, 4-[[4-[(3-Bromophenyl)amino]-6-quinazolinyl]amino]-4-oxo-(E)-2-butenoic acid]
IC50 (Neu-3T3 cells): 15000 nM

Compound: CC=CC=CC(=O)Nc1ccc2ncnc(Nc3cccc(Br)c3)c2c1 [Example 11, N-[4-[(3-Bromophenyl)amino]-6-quinazolinyl]-2,4-hexadienamide]
IC50 (SKBR3 cells; [9]): 4000 nM
IC50 (Neu-3T3 cells; 48 to 72 hours with compound): 400 nM
IC50 (NHEK cells): 850 nM
IC50 [2]: 56 nM
IC50 (A431 cells): 800 nM

IC50 [2]: 1000 nM
Compound: O=C(C#Cc1ccccc1)Nc1ccc2ncnc(Nc3cccc(Br)c3)c2c1 [Example 14, N-[4-[(3-bromophenyl)amino]-6-quinazolinyl]-(3-phenyl-2-propynamide)]

Compound: COc1cc2ncnc(Nc3cccc(Br)c3)c2cc1OC [N-(3-bromophenyl)-6,7-dimethoxy-4-quinazolinamine, reference compound]
inhibition of tumor growth in vivo (in words) ([1]; A431 tumors in mice): devoid of antineoplastic activity
% T/C Day 7 [1, 14]: 95%
% T/C Day 14 [1, 14]: 116%
% T/C Day 21 [1, 14]: 128%
% T/C Day 28 [1, 14]: 140%
RTG Day 7 [1, 14]: 3.03
RTG Day 14 [1, 14]: 6.58
RTG Day 21 [1, 14]: 10.5
RTG Day 28 [1, 14]: 14.47
S/T (No. Survivors/No. Treated on Day +28) [1, 14]: 15/15
